From US12508225B2, “Lipid compound and use thereof in delivery of nucleic acid” (BEIJING TRICISIONBIO THERAPEUTICS INC., priority 2021, dated 2025)

Assay: TNS dye-binding assay for dissociation constant (pKa)
Assay type: physicochemical
Text: Ionizable lipids have two main roles: binding to nucleic acids and allowing the release of the nucleic acid molecules in cells.

pKa: 6.81
Compound: CCCCC/C=C\C/C=C\CCCCCCC(O)CNCCN(C)CCN(CC(O)CCCCCC/C=C\C/C=C\CCCCC)CC(O)CCCCCC/C=C\C/C=C\CCCCC (stereo not shown) [II-37]
